Key:
[1] = test system: mammalian cells; conditions: mammalian cells and in vivo; cited from earlier work
[2] = test system: HBsAg (hepatitis B virus major surface antigen); test: HBsAg aggregation in yeast, immunoblot detection of HBsAg; format: cell-based; conditions: alizarin 10 microg/ml and 1 microg/ml (FIG. 16D)
Source text: Recombinant HBsAg cDNA (synthesized by GeneScript, Piscataway, N.J., USA) was inserted into the expression vector p42K-TEF (D3011001-1 Dualsystems Biotech AG, Zurich). Yeast transformants were selected in the presence of G418 in the yeast growth medium (YPD; Bacto-yeast extract 10 g/L, Bacto-peptone 20 g/L and D-Glucose […]). Yeast (Saccharomyces cerevisae) strain INVSc1 was used (Invitrogen GmbH, Nr. C810-00). After 3-4 days of cultivation to allow for protein expression, yeast cells were harvested by centrifugation, followed by washing with ice-cold PBS. The yeast cell pellet was immediately frozen at −70° C. Proteins were extracted for 30 min. at 4° C. with solubilization buffer (1% sodium deoxycholate, 0.1% SDS, 0.1% NP40, 5 mM EDTA, 50 mM Tris, pH 8.0) supplemented with protease/phosphatase inhibitors (Cat. No. P8349, and/or PPC1010, Sigma-Aldrich, St. Louis, Mo., USA). […] Protein were separated by urea-containing SDS-PAGE (7.5-10%) under reducing conditions, transferred to PVDF membranes by electrophoretic protein transfer in a tank transfer cell (Mini Trans-Blot cell, Bio-Rad GmbH, Munchen, Germany), and transferred HBsAg proteins were detected in immunoblot with HBsAg-specific antibodies raised in rabbit against an N-terminal epitope of HBsAg, or by a monoclonal HBsAg antibody produced in mouse (SAB4700767, Sigma-Aldrich, St. Louis, Mo., USA). […]

[3] = test system: hyperphosphorylated PHF-Tau; test: Hippocampal hyperphosphorylated PHF-Tau in Tg2576 mice subjected to CUMS, binding assay with [125I]-labeled AT8 antibody; format: in vivo; conditions: 15 months-old Tg2576 mice, 3 months of CUMS, treated during CUMS; compounds 10 mg/kg/d
[4] = test system: PHF-tau; test: Hippocampal PHF-tau in the Tg-TauP301L model of tauopathy (AT8 antibody); format: in vivo; conditions: 12-month-old Tg-Tau-P301L mice treated for six months
[5] = Measurement of serum level in dogs by HPLC; format: in vivo, German shepherd dogs; conditions: for peak serum concentration: t=1 h
Experimental: Serum concentrations of alizarin were determined with serum isolated from the blood of male and female German shepherd dogs (age: 8-9 months) taken at different time points (0.5 h, 1 h, 2 h, 4 h, 6 h, 8 h, 24 h) after oral intake of the indicated doses for 4 weeks. In addition, serum concentrations of alizarin (Compound-1) were determined in male and female Sprague Dawley rats (body weight: 200-250 g) treated for 1 month and/or three months by oral gavage of alizarin at a once daily dose of 100 mg/kg, 50 mg/kg, 25 mg/kg and 12.5 mg/kg. Serum proteins were removed by acetonitrile precipitation, and alizarin was extracted by chloroform before separation on an HPLC-C18 column (Poroshell 120 EC-C18, 3.0×50 mm, Agilent) with an HPLC system (Agilent 1100 Series) and detection at OD245 nm. For quantitative determination of Compound-7 and Compound-10F in rat and dog serum, serum proteins were also removed by acetonitrile precipitation before HPLC analysis as detailed above and detection at OD254 nm.

For O=C1c2ccccc2C(=O)c2c1ccc(O)c2O [Compound-1, 1,2-dihydroxyanthraquinone], the tumor promotion [1] is listed as “not a tumor promotor”, the “aggregation and assembly of HBsAg” value [2] is listed as “inhibited the aggregation and assembly of HBsAg” and the “hippocampal content of hyperphosphorylated PHF-Tau” value [3] is listed as “significantly decreased hippocampal content of hyperphosphorylated PHF-Tau”. For the same compound, the “hippocampal content of PHF-tau” value [4] was “significantly decreased hippocampal content of PHF-tau”, the “oral bioavailability / serum concentrations after oral intake” value [5] was “achieves therapeutic serum concentrations” and the “time of second serum peak” value ([5]; after oral intake) was 4 h. For the same compound, the peak serum concentration ([5]; repeated once daily oral dose of 2 mg/kg) was 0.146 ± 0.017 µg/mL, the peak serum concentration ([5]; repeated once daily oral dose of 6 mg/kg) was 0.467 ± 0.022 µg/mL and the “time of peak serum concentration” value ([5]; repeated once daily oral intake of 2 mg/kg/day and 6 mg/kg/day) was 1 h.
